Experimental data taken from the NIST ThermoML archive (doi:10.1016/j.fluid.2008.03.004).

Test: xn = mol fraction of the nth substance listed
Conditions: 101 kPa, Liquid; for speed of sound: Sing-around technique in a fixed-path interferometer

CCOC(C)(C)C [2-ethoxy-2-methylpropane] + Cc1ccc(C)cc1
Conditions | mass density, 315.65 K [kg/m3] | mass density, 318.15 K [kg/m3] | mass density, 320.65 K [kg/m3] | mass density, 323.15 K [kg/m3] | speed of sound, 315.65 K [m/s] | speed of sound, 318.15 K [m/s] | speed of sound, 320.65 K [m/s] | speed of sound, 323.15 K [m/s]
x1 = 0.062 | 833.306 | 831.175 | 828.907 | 826.773 | – | 1208.1 | 1197.9 | 1187.7
x1 = 0.123 | 825.641 | 823.476 | 821.186 | 819.029 | – | 1190.2 | 1180 | 1169.7
x1 = 0.238 | 811.445 | 809.233 | 806.89 | 804.681 | – | 1157 | 1146.7 | 1136.3
x1 = 0.35 | 797.52 | 795.26 | 792.863 | 790.599 | – | 1124.9 | 1114.4 | 1103.9
x1 = 0.455 | 784.471 | 782.164 | 779.723 | 777.399 | – | 1094.8 | 1084.3 | 1073.7
x1 = 0.557 | 771.824 | 769.47 | 766.974 | 764.613 | – | 1065.8 | 1055.2 | 1044.6
x1 = 0.654 | 759.71 | 757.309 | 754.765 | 752.347 | 1049.1 | 1038.5 | 1027.7 | 1017.1
x1 = 0.746 | 748.28 | 745.827 | 743.239 | 740.77 | 1023.4 | 1012.6 | 1001.8 | 991.05
x1 = 0.834 | 737.319 | 734.831 | 732.197 | 729.685 | 998.93 | 988.25 | 977.45 | 966.6
x1 = 0.902 | 728.791 | 726.264 | 723.589 | 721.039 | 980.02 | 969.29 | 958.35 | 947.53
x1 = 0.959 | 721.749 | 719.189 | 716.494 | 713.92 | 964.74 | 953.77 | 942.81 | 931.92
x1 = 1 | 716.527 | 713.96 | 711.25 | 708.642 | 953.54 | 942.67 | 931.73 | 920.73
